# Measured values published in patent publication US12208143B2, “Compositions and methods for transport across the blood brain barrier” (OPHIDION INC., priority 2011, dated 2025).
# “Also recorded” adds a separate entry of the source. Where two headings read alike, the source gives them in different places.
# How the values were obtained:
# lynx1 mRNA [1] = experiment: Knock-down of lynx1 mRNA after delivery of anti-lynx1 siRNA into cultured cortical neurons via peptide variant-siRNA complexes (qPCR); type: cell-based, mouse
# lynx1 mRNA [2] = experiment: lynx1 knock-down by lynx1 siRNA species in cultured cortical neurons (TaqMan qPCR); type: cell-based, mouse; conditions: siRNA transfected by Accell method, lynx1 mRNA relative to mock, FIG. 6
# lynx1 mRNA [3] = experiment: siRNA uptake of peptide-lynx1 siRNA complexes into primary neuronal cultures (lynx1 mRNA knock-down, qPCR); type: cell-based; conditions: 25 uM peptide + 2.5 uM lynx1 siRNA (siRNA1), poly-D arginine linker, 24 hours, primary cortical mouse neurons, FIG. 8
# primary cortical neurons = type: cell-based, mouse
sequence,measurement,setting,value
MTTRTYFTPYAMADRKS [Mutant 3],knock-down of lynx1 mRNA relative to the lynx1-loop2 peptide-siRNA complex,lynx1 mRNA [1],abolish lynx1-loop2 peptide function; also recorded: not as effective for decreasing lynx1 expression
MTWCDYFTPSRGKVRKS [Mutant 1],decrease of lynx1 mRNA compared to RVG29 and RVG19 complexes,lynx1 mRNA [1],more effective at decreasing levels of lynx1 mRNA compared to RVG29 and RVG19; also recorded: decrease lynx1 mRNA in cultured cortical neurons more effectively than both RVG29 and RVG19
same,knock-down of lynx1 mRNA relative to the lynx1-loop2 peptide-siRNA complex,lynx1 mRNA [1],as capable of translocating siRNA into neurons as is lynx1-loop2; also recorded: enhanced the knock-down compared to SEQ ID NO:2 peptide; also recorded: capable of decreasing lynx1 expression in cultured cortical neurons as well as a peptide having the sequence of SEQ ID NO:2
"GCACUGAUUUGAUAGAAUU (siRNA; purchased Accell siRNA, chemistry not given here) [siRNA1, SMART pool siRNA A-062811-13 LYNX1, Thermo Scientific/Dharmacon]",reduction of lynx1 expression,lynx1 mRNA [2],more than 90%
same,reduction in lynx1 mRNA compared to no siRNA (Mock),lynx1 mRNA [3],no significant reduction in lynx1 mRNA levels
same,knock-down of lynx1 mRNA relative to the lynx1-loop2 peptide-siRNA complex,"lynx1 mRNA [1]; 5 μM peptide + 0.5 μM anti-lynx1 siRNA, 24 hours, cultured cortical neurons, lynx1-loop2 set to 100%, siRNA alone set at 0%, FIG. 10",did not result in knock-down of lynx1 mRNA
EVMEQSAGIMYRKS [lynx2-loop2],binding of biotinylated peptide to neurons in culture,primary cortical neurons,did not reliably bind to neurons
MTTRTYATPYRMKVRKS [Mutant 2],knock-down of lynx1 mRNA relative to the lynx1-loop2 peptide-siRNA complex,lynx1 mRNA [1],significantly reduces lynx1-loop2 peptide ability to transport siRNA into neurons; also recorded: not as effective for decreasing lynx1 expression
